Where two headings read alike, the source gives them in different places.
Target: HiBiT tagged Wee1 (Homo sapiens, UniProt P30291)
Assay: Wee1 protein degradation assay (HiBiT assay)
Assay type: cell-based
[1] = engineered HT-1080 cells, 20 hours
[2] = engineered HT-1080 cells, 20 hours, maximum percentage of Wee1 degradation, read-out: HiBiT Wee1: Dmax
[3] = HT-1080, read-out: HiBiT Wee1: Dmax

HiBiT tagged Wee1, sequence (P30291 whole entry): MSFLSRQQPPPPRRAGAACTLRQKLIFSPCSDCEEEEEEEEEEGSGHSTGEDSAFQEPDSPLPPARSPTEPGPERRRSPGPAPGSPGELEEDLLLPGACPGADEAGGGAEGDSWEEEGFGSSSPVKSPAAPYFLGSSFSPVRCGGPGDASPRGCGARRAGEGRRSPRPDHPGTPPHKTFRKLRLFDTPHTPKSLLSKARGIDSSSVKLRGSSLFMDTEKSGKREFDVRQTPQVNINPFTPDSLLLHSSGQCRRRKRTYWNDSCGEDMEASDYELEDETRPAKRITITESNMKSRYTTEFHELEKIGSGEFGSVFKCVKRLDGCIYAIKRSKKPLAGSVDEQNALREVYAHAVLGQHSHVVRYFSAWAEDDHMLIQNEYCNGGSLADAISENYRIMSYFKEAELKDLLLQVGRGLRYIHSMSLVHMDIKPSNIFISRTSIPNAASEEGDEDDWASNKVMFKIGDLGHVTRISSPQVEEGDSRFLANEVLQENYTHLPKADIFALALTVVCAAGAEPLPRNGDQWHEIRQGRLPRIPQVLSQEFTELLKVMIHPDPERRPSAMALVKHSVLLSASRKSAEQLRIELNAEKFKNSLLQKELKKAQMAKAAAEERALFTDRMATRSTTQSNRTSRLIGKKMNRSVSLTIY

Row | Structure (SMILES) | DC50 [1] [nM] | Dmax [2] [%] | Dmax [3] [%] | Dmax (HT-1080, […], maximum percentage of Wee1 degradation, read-out: HiBiT Wee1: Dmax) [%]
1 | C=CCn1c(=O)c2cnc(Nc3ccc(N4CCC(CN5CCN(c6ccc(NC7CCC(=O)NC7=O)cc6F)CC5)CC4)cc3)nc2n1-c1ccc2c(n1)[C@](C)(O)CC2 (single isomer, unassigned) [Compound 120] | < 100 | 50 to 75 | – | –
2 | C[C@@]1(O)CC/C=C\Cn2c(=O)c3cnc(Nc4ccc(N5CCN(CC6CCN(c7ccc(NC8CCC(=O)NC8=O)cc7F)CC6)CC5)cc4)nc3n2-c2cccc1n2 (single isomer, unassigned) [Compound 142] | < 100 | 50 to 75 | – | –
3 | C=CCn1c(=O)c2cnc(Nc3ccc(N4CCC(N5CC[C@H](c6ccc(NC7CCC(=O)NC7=O)cc6F)C(F)(F)C5)CC4)cc3)nc2n1-c1ccc2c(n1)[C@@](O)(CC)CC2 (single isomer, unassigned) [Compound 183] | < 100 | > 75 | – | –
4 | C=CCn1c(=O)c2cnc(Nc3ccc(N4CCC(N5CC[C@@H](c6ccc(NC7CCC(=O)NC7=O)cc6F)C(F)(F)C5)CC4)cc3)nc2n1-c1ccc2c(n1)[C@@](O)(CC)CC2 (single isomer, unassigned) [Compound 184] | < 100 | > 75 | – | –
5 | C=CCn1c(=O)c2cnc(Nc3ccc(N4CCN(CC5CCN(c6ccc(NC7CCC(=O)NC7=O)cc6F)CC5)CC4)cc3)nc2n1-c1ccc2c(n1)[C@@](O)(CC)CCC2 (single isomer, unassigned) [Compound 188] | < 100 | > 75 | – | –
6 | C=CCn1c(=O)c2cnc(Nc3ccc(N4CCN(CC5CCN(c6ccc(NC7CCC(=O)NC7=O)cc6F)CC5)CC4)cc3)nc2n1-c1ccc2c(n1)[C@](C)(O)CCC2 (single isomer, unassigned) [Compound 190] | < 100 | > 75 | – | –
7 | C=CCn1c(=O)c2cnc(Nc3ccc(N4CCN(CC5CCN(c6ccc(NC7CCC(=O)NC7=O)cc6F)CC5)CC4)cc3)nc2n1-c1ccc2c(n1)[C@@](C)(O)CCC2 (single isomer, unassigned) [Compound 191] | < 100 | > 75 | – | –
8 | O=C1CCC(N2C(=O)c3ccc(N4CCC(CN5CCc6cc(Nc7ncc8c(=O)n(-c9c(Cl)cccc9Cl)c9nccn9c8n7)ccc6C5)CC4)cc3C2=O)C(=O)N1 (stereo not drawn) [Compound 1] | > 1000 | < 50 | – | –
9 | O=C1CCC(N2C(=O)c3ccc(N4CCC(CCN5CCN(c6ccc(Nc7ncc8c(=O)n(-c9c(Cl)cccc9Cl)c9nccn9c8n7)cc6)CC5)CC4)cc3C2=O)C(=O)N1 (stereo not drawn) [Compound 4] | > 1000 | < 50 | – | –
10 | O=C1CCC(N2C(=O)c3ccc(N4CCC(CN5CCc6ccc(Nc7ncc8c(=O)n(-c9c(Cl)cccc9Cl)c9nccn9c8n7)cc6C5)CC4)cc3C2=O)C(=O)N1 (stereo not drawn) [Compound 5] | > 1000 | < 50 | – | –
11 | C=CCn1c(=O)c2cnc(Nc3ccc(N4CCN(CCNc5ccc6c(c5)C(=O)N(C5CCC(=O)NC5=O)C6=O)CC4)cc3)nc2n1-c1cccc(C(C)(C)O)n1 (stereo not drawn) [Compound 11] | < 100 | 50 to 75 | – | –
12 | C=CCn1c(=O)c2cnc(Nc3ccc(N4CCN(CC5CN(c6ccc7c(c6)C(=O)N(C6CCC(=O)NC6=O)C7=O)C5)CC4)c(C)c3)nc2n1-c1cccc(C(C)(C)O)n1 (stereo not drawn) [Compound 12] | < 100 | 50 to 75 | – | –
13 | O=C1CCC(N2C(=O)c3ccc(N4CC(CN5CCC(c6ccc(Nc7ncc8c(=O)n(-c9c(Cl)cccc9Cl)c9nccn9c8n7)cc6)CC5)C4)cc3C2=O)C(=O)N1 (stereo not drawn) [Compound 13] | < 100 | 50 to 75 | – | –
14 | O=C1CCC(N2C(=O)c3ccc(N4CCC(CCN5CCC(c6ccc(Nc7ncc8c(=O)n(-c9c(Cl)cccc9Cl)c9nccn9c8n7)cc6)CC5)CC4)cc3C2=O)C(=O)N1 (stereo not drawn) [Compound 15] | 100 to 1000 | 50 to 75 | – | –
15 | Cc1cc(Nc2ncc3c(n2)N(C)CN(c2c(Cl)cccc2Cl)C3=O)ccc1C1CCN(CC2CCN(c3cccc4c3C(=O)N(C3CCC(=O)NC3=O)C4=O)CC2)CC1 (stereo not drawn) [Compound 19] | > 1000 | < 50 | – | –
16 | CN1CN(c2c(Cl)cccc2Cl)C(=O)c2cnc(Nc3ccc4c(c3)CN(CC3CN(c5ccc6c(c5)C(=O)N(C5CCC(=O)NC5=O)C6=O)C3)CC4)nc21 (stereo not drawn) [Compound 20] | > 1000 | < 50 | – | –
17 | C=CCn1c(=O)c2cnc(Nc3ccc4c(c3)CN(CCCCCCNc3ccc5c(c3)C(=O)N(C3CCC(=O)NC3=O)C5=O)CC4)nc2n1-c1cccc(C(C)(C)O)n1 (stereo not drawn) [Compound 22] | > 1000 | – | < 50 | –
18 | C=CCn1c(=O)c2cnc(Nc3ccc4c(c3)CN(CCCNc3ccc5c(c3)C(=O)N(C3CCC(=O)NC3=O)C5=O)CC4)nc2n1-c1cccc(C(C)(C)O)n1 (stereo not drawn) [Compound 23] | > 1000 | < 50 | – | –
19 | C=CCn1c(=O)c2cnc(Nc3ccc4c(c3)CN(CCCCNc3ccc5c(c3)C(=O)N(C3CCC(=O)NC3=O)C5=O)CC4)nc2n1-c1cccc(C(C)(C)O)n1 (stereo not drawn) [Compound 24] | > 1000 | – | < 50 | –
20 | C=CCn1c(=O)c2cnc(Nc3ccc(N4CCN(CC5CCN(c6ccc7c(c6)CN(C6CCC(=O)NC6=O)C7=O)CC5)CC4)cc3)nc2n1-c1cccc(C(C)(C)O)n1 (stereo not drawn) [Compound 25] | < 100 | 50 to 75 | – | –
21 | COc1ccc(C(=O)N2CCC(CN3CCC(c4ccc(Nc5ncc6c(=O)n(-c7c(Cl)cccc7Cl)c7nccn7c6n5)cc4)CC3)CC2)cc1N1CCC(=O)NC1=O [Compound 26] | > 1000 | < 50 | – | –
22 | COc1ccc(C(=O)N2CCC(CCN3CCC(c4ccc(Nc5ncc6c(=O)n(-c7c(Cl)cccc7Cl)c7nccn7c6n5)cc4)CC3)CC2)cc1N1CCC(=O)NC1=O [Compound 28] | > 1000 | 50 to 75 | – | –
23 | C=CCn1c(=O)c2cnc(Nc3ccc(N4CCN(CCC5CCN(C(=O)c6ccc(OC)c(N7CCC(=O)NC7=O)c6)CC5)CC4)cc3)nc2n1-c1cccc(C(C)(C)O)n1 [Compound 29] | > 1000 | < 50 | – | –
24 | Cc1cc(Nc2ncc3c(n2)N(C)CN(c2c(Cl)cccc2Cl)C3=O)ccc1N1CCC(CN2CCN(c3cccc4c3C(=O)N(C3CCC(=O)NC3=O)C4=O)CC2)CC1 (stereo not drawn) [Compound 31] | > 1000 | < 50 | – | –
25 | Cc1cc(Nc2ncc3c(n2)N(C)CN(c2c(Cl)cccc2Cl)C3=O)ccc1N1CCC(CN2CC3(C2)CN(c2ccc4c(c2)C(=O)N(C2CCC(=O)NC2=O)C4=O)C3)CC1 (stereo not drawn) [Compound 32] | 100 to 1000 | 50 to 75 | – | –
26 | Cc1cc(Nc2ncc3c(n2)N(C)CN(c2c(Cl)cccc2Cl)C3=O)ccc1N1CCC(CN2CCC(c3ccc4c(c3)C(=O)N(C3CCC(=O)NC3=O)C4=O)CC2)CC1 (stereo not drawn) [Compound 33] | > 1000 | – | – | < 50
27 | Cc1cc(Nc2ncc3c(n2)N(C)CN(c2c(Cl)cccc2Cl)C3=O)ccc1N1CCC(CN2CCN(c3ccc4c(c3)CN(C3CCC(=O)NC3=O)C4=O)CC2)CC1 (stereo not drawn) [Compound 34] | > 1000 | < 50 | – | –
28 | C=CCn1c(=O)c2cnc(Nc3ccc(C4CCN(CC5CCN(c6ccc(C(=O)NC7CCC(=O)NC7=O)nc6)CC5)CC4)cc3)nc2n1-c1cccc(C(C)(C)O)n1 (stereo not drawn) [Compound 35] | > 1000 | < 50 | – | –
29 | C=CCn1c(=O)c2cnc(Nc3ccc(C4CCN(C[C@H]5CCN(c6ccc7c(c6)C(=O)N(C6CCC(=O)NC6=O)C7=O)C5)CC4)cc3)nc2n1-c1cccc(C(C)(C)O)n1 (stereo partly drawn) [Compound 36] | < 100 | 50 to 75 | – | –
30 | C=CCn1c(=O)c2cnc(Nc3ccc(N4CCN(C[C@@H]5CCN(c6ccc7c(c6)C(=O)N(C6CCC(=O)NC6=O)C7=O)C5)CC4)cc3)nc2n1-c1cccc(C(C)(C)O)n1 (stereo partly drawn) [Compound 38] | < 100 | 50 to 75 | – | –
